Reference: paper PMC6099102, “Effect of the Nature of Donor Atoms on the Thermodynamic, Kinetic and Relaxation Properties of Mn(II) Complexes Formed With Some Trisubstituted 12-Membered Macrocyclic Ligands” (Frontiers in Chemistry, 2018)
Read-outs that look alike come from different tables or passages of the source. Marks after values point to notes of the source that are not given here.

Legend:
[1] = Protonation constants of the ligands by pH-potentiometric titration; assay type: physicochemical; conditions: for Σ log K2H: log K1H + log K2H
Method: (§1) The concentration of the ligand solutions was determined by pH-potentiometric titration in the presence and absence of an excess (5–10 fold) of MnCl2. For determining the protonation constants of the investigated ligands, pH-potentiometric titrations were made by means of 0.2 M standardized NaOH in 2 and 3 mM ligand solutions in the pH-range of 1.75–11.85. All equilibrium measurements were performed at a constant 0.15 M NaCl ionic strength at 25 °C. The protonation and the stability constants of the Mn(II) complexes were determined by pH-potentiometric titrations (DOTP, DO3A, PCTA, ODO3A, DO3P) while owing to the slow formation rates of Mn(II) complexes formed with amide type ligands, the stability constants of DOTAM, DOTMA, DO3AM^H, PC3AM^H, PC3AM^Gly, PC3AM^Pip complexes were determined by out-of-cell pH-potentiomertry in combination with ^1H relaxometry. The metal-to-ligand concentration ratio in the solutions was 1:1. For the calculation of protonation constants of the ligands and the log KMnL and log KMnLHi values of the complexes, mL–pH data pairs (50–180), obtained in the pH range of 1.75–11.85 or r1obs-pH data pairs (10–15 batch samples) obtained in the pH range of 2–4.5 were used (the samples were equilibrated for 4–7 days). The equilibrium constants characterizing the deprotonation that occurs at basic pH were determined from the data obtained via direct pH-potentiometric titrations performed on the pre-formed complexes.
(§2) The pH-potentiometric titrations were carried out with a Methrohm 888 Titrando titration workstation using a Metrohm-6.0233.100 combined electrode. The samples (6.00 mL) were thermostated at 25 °C. The samples were stirred and kept under inert gas (N2) to avoid the effect of CO2. KH-phthalate (pH = 4.005) and borax (pH = 9.177) buffers were used for the pH-calibration. The method proposed by Irving et al. was used for the calculation of H^+ concentrations from the measured pH values (Irving et al., [1967]). A 0.01 M HCl (I = 0.15 M set with NaCl) solution was titrated with standardized NaOH solution of known concentration (approx. 0.2 M). The correction factor obtained as difference of calculated pH and measured pH values was used to calculate the [H^+] in the samples. The ionic product of water was determined from the same titrations (HCl/NaOH) from the data collected in the pH range of 11.20–11.85.
The protonation and complexation equilibria of the macrocyclic ligands and their Mn(II) complexes have been studied by pH-potentiometric and relaxometric methods in the presence of 0.15 M NaCl whose ionic strength mimics the physiological conditions. The protonation constants of the ligands were evaluated by fitting the pH-V(mL) base data pairs collected in the pH-potentiometric titrations. The protonation equilibria of the ligands can be described by Equation (2). (a comparison of previously published log K^H data available in the Supplementary Material) together with the constants of H4DOTA, cis- and trans-H2DO2A derivatives given for comparison. (2) KiH=[HiL]/[Hi-1L][H^+],i=1,2,…

[2] = Stability and protonation constants and pMn of the Mn(II) complexes (pH-potentiometry and/or 1H relaxometry); assay type: physicochemical; conditions: I = 0.15 M NaCl, 25 °C; for pMn: calculated at pH = 7.4, cM = cL = 10^−5 M; for log KML: stability constant of the Mn(II) complex; for log KMLOH: ternary hydroxido complex of Mn(II); for log KMLH: protonation constant of the Mn(II) complex; for log KMHLH: second protonation constant of the Mn(II) complex; for log KMH2LH: third protonation constant of the Mn(II) complex
Method: as §1, §2
The relaxometric data were collected using a Bruker Minispec MQ20 NMR relaxometer. […] A datapoint plotted on figures represents an average of 5–6 T1 measurements (Figures S3–S9 in Supplementary Material). The data were fitted by using the molar r1p relaxivity value of the MnCl2 ([…] at 0.49 T and 25 °C). The equilibrium constants were calculated using the PSEQUAD program (Zékány and Nagypál, [1985]).
In order to gain information on the thermodynamic stability of the Mn(II) complexes, samples containing the metal and ligand in 1 to 1 molar ratio were studied by pH potentiometry or ^1H-relaxometry and in some cases by a combination of the two methods. The titration data were fitted by assuming the existence of [M(L)] and some protonated species ([M(HiL)]) at lower pH values. In some cases to fit the data obtained at higher pH, the formation of ternary hydroxido complexes ([M(L)(OH)]) were also included in the equilibrium model. The stability constants (KML) and the various protonation forms (KMHiL) of ML metal chelates are defined by Equations (3)–(5). However, a comparison of the stabilities of different complexes solely on the basic of their stability constants might be misleading because of the differences in ligand basicities. […] The pMn value accounts for the effect of proton competition (ligand basicity and complex protonation) on the stability constant essentially offering the same information as the conditional stability constant. Higher pMn values indicate a higher chelate stability at specified conditions. […]

[3] = I = 0.1 M KCl, ref Forgács et al., [2017], cited from earlier work; for Σ log K2H: log K1H + log K2H
[4] = I = 0.1 M KCl, ref Forgács et al., cited from earlier work; for log KML / log KMLOH: Mn(II) complex; for pMn: pH = 7.4, cM = cL = 10^−5 M
[5] = Dissociation kinetics of the Mn(II) complexes (acid catalyzed dissociation, metal or ligand exchange reactions); assay type: physicochemical; conditions: replacement of >NH in DO3A by etheric oxygen
Method: The dissociation reactions were followed by UV-vis spectrophotometry at 269 nm for the pyclen derivatives or at 300 nm for other complexes in the pH range of 3.6–5.0 for the exchange reactions with Cu(II) and up to pH = 6.0 when Zn(II) was used as a ligand scavenger. The acid catalyzed dissociation reactions were performed in the HCl concentration range of 0.05–1.0 M. The concentration of the complexes in the samples was 0.25 mM, while the concentration of the exchanging metal ion in the metal initiated transchelation reactions was 10–40 times higher to ensure pseudo-first-order conditions. Relaxometry was used to follow the transchelation reactions of [Mn(DOTAM)]^2+, [Mn(DO3AM^H)]^2+, [Mn(DO3A)]^−, [Mn(PCTA)]^− and [Mn(ODO3A)]^− with Cu(II)/Zn(II) ions in the pH range of 3.6–5.5 (Figures S17–S19 in Supplementary Material). The concentration of the complexes in these samples was set to 1.0–2.0 mM to achieve relatively large change during the dissociation reaction. […] The temperature was maintained at 25 °C and the ionic strength of the solutions was kept constant at 0.15 M with NaCl. N,N′-dimethyl- (DMP) and N-methyl-piperazine (NMP) buffers (log K2H = 4.18 and 4.90 at 25 °C and I = 0.15 M NaCl, respectively) were used at 0.05 M concentration to keep the pH constant. The pseudo-first-order rate constants (kobs) were calculated by fitting the absorbance or relaxivity-time data pairs to Equation (1) (1) Xt=(X0-Xe)e^-kobst+Xe where Xt, X0, and Xe are the absorbance or relaxivity at time t, at the start and at equilibrium, respectively. The calculations were performed with the computer program Micromath Scientist, version 2.0 (Salt Lake City, UT, USA) using a standard least-squares procedure.
The kinetic inertness of the Mn(II) complexes is the other important parameter for the complexes considered for use in vivo. The inertness of Mn(II) complexes formed with trisubstituted 12-memberd macrocyclic ligands were characterized either by studying the rates of acid catalyzed dissociation or by studying transmetallation reactions occurring between the complexes and a suitable exchanging metal ion such as Zn(II) or Cu(II). The demetallation reactions of labile complexes were performed at high pH by following the ligand exchange reactions with trans-CDTA and DTPA ligands. The demetallation reactions were studied in the presence of a large Cu(II)/Zn(II)/trans-CDTA/DTPA excess or by using high acid concentration in order to ensure pseudo-first-order conditions (Equation 6). Scheme 1 outlines all the possible dissociation pathways for the Mn(II) complexes. […] The reactions of the released Mn(II) and L ligand with the exchanging L' and M' reactants are assumed to be very rapid.
The rate of dissociation can be expressed by the Equation (6), where kobs is the pseudo-first-order rate constant and [Mn(L)]t is the total concentration of the species containing [Mn(L)] complex. The [Mn(L)]t will differ slightly depending on the experimental conditions (in the presence of a large metal or ligand excess). As [Mn(L)]t = [Mn(L)] + [Mn(HL)] + [Mn(H2L)] + [Mn(L)M] + [Mn(L)(L')] + [Mn(HL)(L')] for reactions performed at high pH (in the pH range of 3.0–5.0 often applied in Cu(II) exchange reactions) will involve fewer protonated species while the acid catalyzed dissociation reactions run in the strongly acidic media (0.1–1.0 M acid concentration range) predominantly contain protonated species ([Mn(L)]t = [Mn(L)]+[Mn(HL)]+[Mn(H2L)]). (6) -d[MnL]t/dt=kobs[MnL]t
By taking into account the various complex species and the possible reaction pathways as well as the protonation and stability constants of the reactive intermediates, the following equation (Equation 7) can be derived to describe the rates of dissociation. […]

[6] = ligand protonation constant, I = 0.15 M NaCl, 25 °C
[7] = buffer, 25 °C and I = 0.15 M NaCl

| Structure (SMILES) | log K1H [1, 6] | log K2H [1, 6] | log K3H [1, 6] | Σ log K2H ([1]; I = 0.15 M NaCl, 25 °C) | pMn [2] | log KML [2] | log K4H [1, 6] | log KMLH [2] | further results |
| --- | --- | --- | --- | --- | --- | --- | --- | --- | --- |
| O=C(CN1CCN(CC(=O)N2CCCCC2)Cc2cccc(n2)CN(CC(=O)N2CCCCC2)CC1)N1CCCCC1 [PC3AM^Pip] | 8.74 (1) | 5.77 (2) | 1.42 (9) | 14.51 | 8.86 | 14.05 (2) |  |  | log KMLOH [2]: 11.63 (2) |
| O=C(CN1CCNCCNCCN(CC(=O)NCc2ccccc2)CC1)NCc1ccccc1 [cis-DO2AM^Bz2] |  |  |  |  |  |  |  |  | log K1H [3]: 9.62; log K2H [3]: 6.90; Σ log K2H [3]: 16.52; log KML [4, 2017]: 10.72; log KMLOH [4, 2017]: 9.44; pMn [4, 2017]: 6.69 |
| CN(C)C(=O)CN1CCN(CC(=O)N(C)C)CCN(Cc2ccccc2)CCN(Cc2ccccc2)CC1 [cis-Bz2DO2AM^Me2] |  |  |  |  |  |  |  |  | log K1H [3]: 11.11; log K2H [3]: 8.22; Σ log K2H [3]: 19.33; log KML [4, 2016]: 11.54; log KMLOH [4, 2016]: 10.44; pMn [4, 2016]: 6.00 |
| CN1CCNCC1 [NMP, N-methyl-piperazine, reference compound] |  |  |  |  |  |  |  |  | log K2H [1, 7]: 4.90 |
| O=C(O)CNC(=O)CN1CCN(CC(=O)NCC(=O)O)Cc2cccc(n2)CN(CC(=O)NCC(=O)O)CC1 [PC3AM^Gly] | 8.85 (1) | 4.55 (1) | 3.81 (1) | 13.40 | 8.37 | 13.20 (1) | 3.21 (1) | 3.98 (1) | log K5H [1, 6]: 2.80 (1); log K6H [1, 6]: 1.38 (1); log KMHLH [2]: 3.14 (1); log KMLOH [2]: 10.67 (2); log KMH2LH [2]: 2.87 (1) |
| CN1CCN(C)CC1 [DMP, reference compound] |  |  |  |  |  |  |  |  | log K2H [1, 7]: 4.18 |
| O=P(O)(O)CN1CCN(CP(=O)(O)O)CCN(CP(=O)(O)O)CCN(CP(=O)(O)O)CC1 [DOTP] |  | 12.23 (3) | 8.63 (5) | 25.83 | 6.43 | 18.98 (1) | 7.45 (4) | 8.09 (1) | log K1H ([1]; ligand protonation constant by 1H- and 31P-NMR, I = 0.15 M NaCl, 25 °C): 13.6 (2)^[a]; log K5H [1, 6]: 5.84 (5); log K6H [1, 6]: 5.02 (5); log KMHLH [2]: 7.79 (1); log KMH2LH [2]: 6.74 (1) |

Further lines, with some results ahead:

| log K1H [1, 6] | log K2H [1, 6] | log K3H [1, 6] | Σ log K2H ([1]; I = 0.15 M NaCl, 25 °C) | pMn [2] | log KML [2] | log K4H [1, 6] | log KMLH [2] | Structure (SMILES) | further results |
| --- | --- | --- | --- | --- | --- | --- | --- | --- | --- |
| 8.74 (2) | 7.58 (2) | 3.99 (3) | 16.32 | 8.57 | 13.88 (1) | 2.39(3) | 2.77 (5) | O=C(O)CN1CCOCCN(CC(=O)O)CCN(CC(=O)O)CC1 [ODO3A] | increase in the k1 value of the Mn(II) complex relative to DO3A [5]: 50 fold |
| 9.40 (5) | 6.28 (8) |  | 15.68 | 7.32 | 11.69 (2) |  |  | NC(=O)CN1CCNCCN(CC(N)=O)CCN(CC(N)=O)CC1 [DO3AM^H] |  |
| 7.31 (1) | 6.07 (1) |  | 13.38 | 8.60 | 11.96 (1) |  |  | NC(=O)CN1CCN(CC(N)=O)CCN(CC(N)=O)CCN(CC(N)=O)CC1 [DOTAM] |  |
